Source: patent US12679807B2 (MERCK SHARP & DOHME LLC, priority 2020, dated 2026)

Biological target: T1, GCS enzyme contained within Golgi preparations isolated from human A375 malignant melanoma skin cells (Homo sapiens, UniProt Q16739)
T1 construct: endogenous levels of GCS enzyme contained within Golgi preparations isolated from human A375 malignant melanoma skin cells; endogenous in cells; host or cells: A375 human malignant melanoma cells (crude Golgi preparation)
T1 sequence (Q16739 1-394): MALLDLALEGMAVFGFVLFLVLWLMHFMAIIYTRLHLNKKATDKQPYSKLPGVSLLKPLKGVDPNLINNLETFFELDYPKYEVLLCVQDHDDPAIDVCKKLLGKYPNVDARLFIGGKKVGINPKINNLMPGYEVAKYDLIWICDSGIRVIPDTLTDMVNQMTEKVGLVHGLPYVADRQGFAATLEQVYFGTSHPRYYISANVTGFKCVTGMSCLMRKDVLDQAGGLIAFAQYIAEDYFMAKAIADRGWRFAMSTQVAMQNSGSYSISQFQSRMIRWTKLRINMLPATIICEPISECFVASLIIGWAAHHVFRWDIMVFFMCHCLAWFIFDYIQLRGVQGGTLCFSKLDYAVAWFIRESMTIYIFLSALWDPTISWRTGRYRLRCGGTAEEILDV
Test: UDP-Glo glucosylceramide synthase biochemical assay
Conditions: crude Golgi preparation from A375 cells; C6 ceramide and UDP-glucose substrates; 20 h incubation at room temperature; UDP detected by luminescence
Method in brief: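 Endogenous enzyme in A375 Golgi preparations (1.5 μg total protein) was preincubated 30 min with compound, then reacted 20 h at room temperature with UDP-glucose and ceramide.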

SMILES	EC50
O=C(Nc1cccc2c1C(=O)N(CC1(O)CCC1)C2)c1ccnc2c1CCC2 [Compound 166, N-(2-((1-hydroxycyclobutyl)methyl)-3-oxoisoindolin-4-yl)-6,7-dihydro-5H-cyclopenta[b]pyridine-4-carboxamide]	360 nM
Cc1ccc(F)c(C(=O)Nc2cncc3c2C(=O)N([C@H](C2CC2)C(C)(C)O)C3)c1Cl [Compound 167, (R)-2-chloro-N-(2-(1-cyclopropyl-2-hydroxy-2-methylpropyl)-1-oxo-2,3-dihydro-1H-pyrrolo[3,4-c]pyridin-7-yl)-6-fluoro-3-methylbenzamide]	2.1 nM
